According to PMC7252906 (Toxicology and applied pharmacology, 2019):
Where “and” joins values, the source holds several entries; their conditions need not be identical. Equal entries are not always repeated. Where two headings read alike, the source gives them in different places.

Key:
[1] = not given; remark: listed apart in the source
[2] = Radiochemical HPLC profiling of urine after [^14C]DMAE; format: in vivo, Harlan Sprague Dawley rats
[3] = male Wistar Han rats, gavage 10 mg/kg, 24 h
[4] = male Wistar Han rats, gavage 10 mg/kg, 24 h, listed as [^14C]DMAE, 10 mg/kg
[5] = male Wistar Han rats, gavage 100 mg/kg, 24 h
[6] = male Wistar Han rats, gavage 500 mg/kg, 24 h
[7] = male Wistar Han rats, gavage 500 mg/kg, 72 h
[8] = female B6C3F1 mice, gavage 10 mg/kg, 24 h
[9] = female B6C3F1 mice, gavage 10 mg/kg, 24 h, listed as [^14C]DMAE, 10 mg/kg
[10] = female B6C3F1 mice, gavage 100 mg/kg, 24 h
[11] = female B6C3F1 mice, gavage 100 mg/kg, 24 h, listed as [^14C]DMAE, 100 mg/kg
[12] = female B6C3F1 mice, gavage 500 mg/kg, 24 h
[13] = female B6C3F1 mice, gavage 500 mg/kg, 24 h, listed as [^14C]DMAE, 500 mg/kg
[14] = female B6C3F1 mice, gavage 500 mg/kg, 72 h
[15] = male B6C3F1 mice, gavage 500 mg/kg, 24 h

SMILES: CN(C)CCO [DMAE, Dimethylaminoethanol]
- % Dose Recovered, Urine (male Wistar Han rats, IV 10 mg/kg, 24 h, listed as [^14C]DMAE, 10 mg/kg): 39.2 ± 7.80 % dose
- % Dose Recovered, CO2 [3]: 3.67 ± 0.440 % dose
- % Dose Recovered, Feces [3]: 0.206 ± 0.242 % dose
- % Dose Recovered, Tissues and GI Tract (includes contents) [3]: 33.9 ± 2.20 % dose
- % Dose Recovered, VOCs [3]: 0.153 ± 0.037 % dose
- percent radioactivity remaining in all tissues, excluding GI tract [3]: ~28%
- % Dose Recovered, Total Recovered [4]: 95 % dose and 94.9 ± 3.20 % dose
- % Dose Recovered, Urine [4]: 57.0 ± 4.10 % dose
- % Dose Recovered, CO2 [5]: 4.84 ± 0.700 % dose
- % Dose Recovered, Feces [5]: 0.302 ± 0.061 % dose
- % Dose Recovered, Tissues and GI Tract (includes contents) [5]: 30.1 ± 3.80 % dose
- % Dose Recovered, Total Recovered [5]: 93.9 ± 2.90 % dose
- percent radioactivity remaining in all tissues, excluding GI tract [5]: ~25%
- % Dose Recovered, Urine (male Wistar Han rats, gavage 100 mg/kg, 24 h, listed as [^14C]DMAE, 100 mg/kg): 59 % dose and 58.6 ± 5.10 % dose
- % Dose Recovered, CO2 [6]: 4.78 ± 0.810 % dose
- % Dose Recovered, Feces [6]: 0.518 ± 0.472 % dose
- % Dose Recovered, Tissues and GI Tract (includes contents) [6]: 24.3 ± 2.10 % dose
- % Dose Recovered, Total Recovered [6]: 92.1 ± 1.90 % dose
- % Dose Recovered, VOCs [6]: 0.198 ± 0.038 % dose
- percent radioactivity remaining in all tissues, excluding GI tract [6]: ~21%
- % Dose Recovered, Urine (male Wistar Han rats, gavage 500 mg/kg, 24 h, listed as [^14C]DMAE, 500 mg/kg): 62 % dose and 62.1 ± 1.50 % dose
- % Dose Recovered, Feces [7]: 1.11 ± 1.01 % dose
- % Dose Recovered, Tissues and GI Tract (includes contents) [7]: 14.5 ± 1.20 % dose
- % Dose Recovered, Total Recovered [7]: 92.0 ± 2.20 % dose
- % Dose Recovered, Urine [7]: 68.6 ± 2.00 % dose
- administered dose found as expired CO2 (male Wistar Han rats, gavage, all dose levels (10, 100, 500 mg/kg), 24 h): 4–5%
- total administered dose recovered (male and female Wistar Han rats, oral administration, range over groups): 92–98%
- excretion in urine (rats, gavage, range over groups): 57–64%
- excreted as exhaled CO2 (rats, range over groups): ≤ 6%
- administered dose recovered in tissues (excluding GI tract) ([1]; B6C3F1 mice, oral, 24 h post-exposure, range over groups): 26–44%
- % Dose Recovered, Feces [1, 8]: 1.94 ±0.490 % dose
- % Dose Recovered, Tissues and GI Tract (includes contents) [1, 8]: 57.6 ± 3.00 % dose
- % Dose Recovered, Total Recovered [1, 8]: 99.3 ± 1.60 % dose
- % Dose Recovered, VOCs [1, 8]: 1.66 ± 0.340 % dose
- percent radioactivity remaining in all tissues, excluding GI tract [1, 8]: ~44%
- % Dose Recovered, CO2 [1, 9]: 22 % dose and 22.3 ± 3.68 % dose
- % Dose Recovered, Urine [1, 9]: 16 % dose and 15.8 ± 4.00 % dose
- % Dose Recovered, Feces [1, 10]: 1.10 ± 0.410 % dose
- % Dose Recovered, Tissues and GI Tract (includes contents) [1, 10]: 44.5 ± 1.70 % dose
- % Dose Recovered, Total Recovered [1, 10]: 81.6 ± 4.40 % dose
- % Dose Recovered, VOCs [1, 10]: 1.27 ± 0.160 % dose
- percent radioactivity remaining in all tissues, excluding GI tract [1, 10]: ~30%
- % Dose Recovered, CO2 [1, 11]: 16 % dose and 15.5 ± 0.600 % dose
- % Dose Recovered, Urine [1, 11]: 18 % dose and 17.9 ± 3.90 % dose
- % Dose Recovered, Feces [1, 12]: 0.713 ± 0.273 % dose
- % Dose Recovered, Tissues and GI Tract (includes contents) [1, 12]: 38.4 ± 16.1 % dose
- % Dose Recovered, Total Recovered [1, 12]: 97.1 ± 15.2 % dose
- % Dose Recovered, VOCs [1, 12]: 1.51 ± 0.210 % dose
- percent radioactivity remaining in all tissues, excluding GI tract [1, 12]: ~32%
- % Dose Recovered, CO2 [1, 13]: 13 % dose and 13.2 ± 1.80 % dose
- % Dose Recovered, Urine [1, 13]: 43 % dose and 43.4 ± 11.5 % dose
- % Dose Recovered, CO2 [1, 14]: 21.0 ± 2.20 % dose
- % Dose Recovered, Feces [1, 14]: 2.24 ± 1.31 % dose
- % Dose Recovered, Tissues and GI Tract (includes contents) [1, 14]: 19.0 ± 3.70 % dose
- % Dose Recovered, Total Recovered [1, 14]: 97.2 ± 6.40 % dose
- % Dose Recovered, Urine [1, 14]: 53.8 ± 3.90 % dose
- % Dose Recovered, VOCs [1, 14]: 1.08 ± 0.190 % dose
- total administered dose recovered in tissues [1, 14]: 16%
- radioactivity in feces and VOCs ([1]; female B6C3F1 mice, gavage, across all dose groups): < 2%
- % Dose Recovered, CO2 [1, 15]: 17.8 ± 1.10 % dose
- % Dose Recovered, Feces [1, 15]: 13.7 ± 14.9 % dose
- % Dose Recovered, Tissues and GI Tract (includes contents) [1, 15]: 31.8 ± 1.50 % dose
- % Dose Recovered, Total Recovered [1, 15]: 92.1 ± 13.6 % dose
- % Dose Recovered, Urine [1, 15]: 27.1 ± 20.0 % dose
- % Dose Recovered, VOCs [1, 15]: 1.75 ± 0.319 % dose
- excretion in urine ([1]; mice, gavage, range over groups): 16–43%
- excreted as exhaled CO2 ([1]; mice, range over groups): 13–22%
- total percentage of administered dose recovered ([1]; mouse studies, range over groups): 82–99%
- Estimated percentage of area of DMAE peak in urine chromatogram ([2]; Rat/Female, [^14C]DMAE 500 mg/kg, Oral): 55%
- Estimated percentage of area of DMAE peak in urine chromatogram ([2]; Rat/Male, [^14C]DMAE 10 mg/kg, IV): 3%
- Estimated percentage of area of DMAE peak in urine chromatogram ([2]; Rat/Male, [^14C]DMAE 10 mg/kg, Oral): 95%
- Estimated percentage of area of DMAE peak in urine chromatogram ([2]; Rat/Male, [^14C]DMAE 100 mg/kg, Oral): 56%
- Estimated percentage of area of DMAE peak in urine chromatogram ([2]; Rat/Male, [^14C]DMAE 500 mg/kg, Oral): 34%
